In patent US20220267352A1, “RAPAMYCIN ANALOGS AND USES THEREOF” (Anakuria Therapeutics, Inc., priority 2021, published 2022):

Legend:
[1] = system: p-p70 S6 Kinase (Thr389) in MCF-7 cells; test: AlphaLISA Ultra pS6K1 assay; type: cell-based; settings: Homo sapiens, 1.5 h; MCF7 cells, 90 min
Outline: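 MCF-7 cells seeded 20–24 h, given fresh medium 2 h, then treated with compounds 90 min (0.5% DMSO final). Cells lysed, lysates frozen at −80 °C, then Thr389-phosphorylated S6K1 detected by AlphaLISA Ultra with acceptor beads 2 h, then donor beads 2 h.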

[2] = system: pS6K1 T389 and pAkt S473 in PC3 cells; test: Western blot based pS6K1 and pAKT assay at 24 and 48 hour timepoints; type: cell-based
Procedure: Example 57: Western Blot Based pS6K1 and pAKT Assay at 24 and 48 Hour Timepoints
Assay Protocol: • 1. Seed six well plate with 500,000 PC3 cells per well and incubate for 20˜24 hour. • 2. Add compounds into the cell plate. Incubate for 24 to 48 hours. • 4. Plate is placed on ice and the media is removed via aspiration. The wells are washed with 1 mL of 1x PBS and then fully aspirated. • 5. 110 μL of 1% Triton Lysis Buffer is added and each well is scraped vigorously. • 6. Cell homogenates are transferred to 1.5 mL eppendorf tubes on ice and spun down at 4° C. for 10 minutes at 10,000 rpm. • 7. Protein concentration of resulting cell lysates were quantified utilizing a Bradford assay and the samples run analyzed via Western blot on 4-12% Bis/Tris gels with 1×MES buffer. • 8. The gels were transferred onto membranes at 50V for 100 minutes, blocked with Odyssey Blocking buffer for 30 minutes then incubated overnight with primary antibody (pS6K1 T389 Rabbit or pAkt S473 Rabbit) overnight at 4° C. on a rotator. • 9. The membranes were washed 3× with TBS-T with a 5 minute incubation between each wash then incubated with secondary antibody (LiCor IRDye 800 Donkey Anti Rabbit) for at least 30 minutes. • 10. The membranes were washed 3× with TBS-T with a 5 minute incubation between each wash. • 11. The gels were then incubated for 5 minutes with PBS at room temperature then imaged using a Li-Cor.
Compounds that are not selective by comparing pS6K1 and pAKT IC50 by kinase assays are indicated by “NO” in the “mTORC1 selective @ 90 min” column of Table 4. […] Compounds that are not selective at the 24 hrs mark are indicated by “NO” in the “mTORC1 selective @ 24 hrs” column of Table 4. “N/A” stands for “not assayed” and “N/C” stands for “not calculated”.

| Compound | IC50 [1] [nM] | mTORC1 selective @ 24 hrs [2] |
| --- | --- | --- |
| CO[C@@H]1C[C@H](C[C@@H](C)[C@@H]2CC(=O)[C@H](C)/C=C(\C)[C@@H](O)[C@@H](OC)C(=O)[C@H](C)C[C@H](C)/C=C/C=C/C=C(\C)[C@@H](OCC3COCCO3)C[C@@H]3CC[C@@H](C)[C@@](O)(O3)C(=O)C(=O)N3CCCC[C@H]3C(=O)O2)CC[C@H]1OC(F)F (stereo partly drawn) [I-9, (24E,26E,28E,29E,32R,33S,34R,35R,37S,39S,41S,42S,44R,45R,55R)-42-[(1R)-2-[(1S,3R,4R)-4-(difluoromethoxy)-3-methoxy-cyclohexyl]-1-methyl-ethyl]-41-(1,4-dioxan-2-ylmethoxy)-44,55-dihydroxy-45-methoxy-32,33,34,35,46,47-hexamethyl-66,67-dioxa-56-azatricyclohexatriaconta-24,26,28(46),29(47)-tetraene-48,49,50,51,52-pentone] | 1 to 10 | Yes |
| COCCOCCO[C@H]1C[C@@H]2CC[C@@H](C)[C@@](O)(O2)C(=O)C(=O)N2CCCC[C@H]2C(=O)O[C@H]([C@H](C)C[C@@H]2CC[C@@H](OC)[C@H](OC)C2)CC(=O)[C@H](C)/C=C(\C)[C@@H](OC)[C@@H](OC)C(=O)[C@H](C)C[C@H](C)/C=C/C=C/C=C/1C [I-31, (24E,26E,28E,29E,35R,36S,37R,38R,40S,42S,44S,45S,46R,47R,56R)-45-[(1R)-2-[(1S,3R,4R)-3,4-dimethoxycyclohexyl]-1-methyl-ethyl]-56-hydroxy-46,47-dimethoxy-44-[2-(2-methoxyethoxy)ethoxy]-35,36,37,38,48,49-hexamethyl-64,65-dioxa-57-azatricyclohexatriaconta-24,26,28(48),29(49)-tetraene-50,51,52,53,54-pentone] | 10 to 100 | Yes |
| CO[C@@H]1/C(C)=C/[C@@H](C)C(=O)C[C@@H]([C@H](C)C[C@@H]2CC[C@@H](OCCCO)[C@H](OC)C2)OC(=O)[C@@H]2CCCCN2C(=O)C(=O)[C@]2(O)O[C@@H](CC[C@H]2C)C[C@H](OCCOC2COC2)/C(C)=C/C=C/C=C/[C@@H](C)C[C@@H](C)C(=O)[C@@H]1OC [I-45, (23E,25E,27E,28E,35R,36S,37R,38R,40S,42S,44S,45S,47R,48R,57R)-47,57-dihydroxy-45-[(1R)-2-[(1S,3R,4R)-4-(3-hydroxypropoxy)-3-methoxy-cyclohexyl]-1-methyl-ethyl]-48-methoxy-35,36,37,38,49,50-hexamethyl-44-[2-(oxetan-3-yloxy)ethoxy]-68,69-dioxa-58-azatricyclohexatriaconta-23,25,27(49),28(50)-tetraene-51,52,53,54,55-pentone] | < 1 | Yes |
| CO[C@@H]1/C(C)=C/[C@@H](C)C(=O)C[C@@H]([C@H](C)C[C@@H]2CC[C@@H](OC)[C@H](OC)C2)OC(=O)[C@@H]2CCCCN2C(=O)C(=O)[C@]2(O)O[C@@H](CC[C@H]2C)C[C@H](OCC2COCCO2)/C(C)=C/C=C/C=C/[C@@H](C)C[C@@H](C)C(=O)[C@@H]1OC (stereo partly drawn) [I-40, (26E,28E,30E,31E,34R,35S,36R,37R,39S,41S,43S,44S,46R,47R,56R)-44-[(1R)-2-[(1S,3R,4R)-3,4-dimethoxycyclohexyl]-1-methyl-ethyl]-43-(1,4-dioxan-2-ylmethoxy)-56-hydroxy-46,47-dimethoxy-34,35,36,37,48,49-hexamethyl-66,67-dioxa-57-azatricyclohexatriaconta-26,28,30(48),31(49)-tetraene-50,51,52,53,54-pentone] | ≥ 1000 | Yes |
| CO[C@@H]1C[C@H](C[C@@H](C)[C@@H]2CC(=O)[C@H](C)/C=C(\C)[C@@H](O)[C@@H](OC)C(=O)[C@H](C)C[C@H](C)/C=C/C=C/C=C(\C)[C@@H](OCCOC3COC3)C[C@@H]3CC[C@@H](C)[C@@](O)(O3)C(=O)C(=O)N3CCCC[C@H]3C(=O)O2)CC[C@H]1OC(=O)N(C)CCN1CCOCC1 [I-18, [(43S,45R,47R)-4-[(2R)-2-[(28E,30E,32E,33E,39R,40S,41R,42R,44S,46S,48S,49S,51R,52R,62R)-51,62-dihydroxy-52-methoxy-39,40,41,42,53,54-hexamethyl-48-[2-(oxetan-3-yloxy)ethoxy]-55,56,57,58,59-pentaoxo-76,77-dioxa-64-azatricyclohexatriaconta-28,30,32(53),33(54)-tetraen-49-yl]propyl]-47-methoxy-45-cyclohexyl] N-methyl-N-(2-morpholinoethyl)carbamate] |  | Yes |
| COCCO[C@@H]1CC[C@@H](C[C@@H](C)[C@@H]2CC(=O)[C@H](C)/C=C(\C)[C@@H](OC)[C@@H](OC)C(=O)[C@H](C)C[C@H](C)/C=C/C=C/C=C(\C)[C@@H](OCCOCCOC3COC3)C[C@@H]3CC[C@@H](C)[C@@](O)(O3)C(=O)C(=O)N3CCCC[C@H]3C(=O)O2)C[C@H]1OC [I-69, (1R,9S,12S,15R,16E,18R,19R,21R,23S,24E,26E,28E,30S,32S,35R)-1-hydroxy-18,19-dimethoxy-12-[(1R)-2-[(1S,3R,4R)-3-methoxy-4-(2-methoxyethoxy)cyclohexyl]-1-methyl-ethyl]-15,17,21,23,29,35-hexamethyl-30-[2-[2-(oxetan-3-yloxy)ethoxy]ethoxy]-11,36-dioxa-4-azatricyclo[30.3.1.0^4,9]hexatriaconta-16,24,26,28-tetraene-2,3,10,14,20-pentone] | ≥ 1000 | No |
| CO[C@@H]1C[C@H](C[C@@H](C)[C@@H]2CC(=O)[C@H](C)/C=C(\C)[C@@H](O)[C@@H](OC)C(=O)[C@H](C)C[C@H](C)/C=C/C=C/C=C(\C)[C@@H](OCc3cnccn3)C[C@@H]3CC[C@@H](C)[C@@](O)(O3)C(=O)C(=O)N3CCCC[C@H]3C(=O)O2)CC[C@H]1OCCO [I-59, (1R,9S,12S,15R,16E,18R,19R,21R,23S,24E,26E,28E,30S,32S,35R)-1,18-dihydroxy-12-[(1R)-2-[(1S,3R,4R)-4-(2-hydroxyethoxy)-3-methoxy-cyclohexyl]-1-methyl-ethyl]-19-methoxy-15,17,21,23,29,35-hexamethyl-30-(pyrazin-2-ylmethoxy)-11,36-dioxa-4-azatricyclo[30.3.1.0^4,9]hexatriaconta-16,24,26,28-tetraene-2,3,10,14,20-pentone] |  | Yes |
| COCCO[C@@H]1CC[C@@H](C[C@@H](C)[C@@H]2CC(=O)[C@H](C)/C=C(\C)[C@@H](O)[C@@H](OC)C(=O)[C@H](C)C[C@H](C)/C=C/C=C/C=C(\C)[C@@H](OCc3cnccn3)C[C@@H]3CC[C@@H](C)[C@@](O)(O3)C(=O)C(=O)N3CCCC[C@H]3C(=O)O2)C[C@H]1OC [I-57, (1R,9S,12S,15R,16E,18R,19R,21R,23S,24E,26E,28E,30S,32S,35R)-1,18-dihydroxy-19-methoxy-12-[(1R)-2-[(1S,3R,4R)-3-methoxy-4-(2-methoxyethoxy)cyclohexyl]-1-methyl-ethyl]-15,17,21,23,29,35-hexamethyl-30-(pyrazin-2-ylmethoxy)-11,36-dioxa-4-azatricyclo[30.3.1.0^4,9]hexatriaconta-16,24,26,28-tetraene-2,3,10,14,20-pentone] |  | Yes |
